This passage reports Emax and EC50 results from patent US20250002507A1, “7,8-DIHYDRO-5H-1,6-NAPHTHYRIDINE DERIVATIVES AS POSITIVE ALLOSTERIC MODULATORS OF THE MUSCARINIC ACETYLCHOLINE RECEPTOR M4 FOR TREATING NEUROLOGICAL AND PSYCHIATRIC DISORDERS” (Vanderbilt University, priority 2021, published 2025).

This experiment has as its target T1, Human M4 (Homo sapiens, UniProt P08173).
T1 construct: expressed in transfected cells
T1 sequence (P08173 1-479): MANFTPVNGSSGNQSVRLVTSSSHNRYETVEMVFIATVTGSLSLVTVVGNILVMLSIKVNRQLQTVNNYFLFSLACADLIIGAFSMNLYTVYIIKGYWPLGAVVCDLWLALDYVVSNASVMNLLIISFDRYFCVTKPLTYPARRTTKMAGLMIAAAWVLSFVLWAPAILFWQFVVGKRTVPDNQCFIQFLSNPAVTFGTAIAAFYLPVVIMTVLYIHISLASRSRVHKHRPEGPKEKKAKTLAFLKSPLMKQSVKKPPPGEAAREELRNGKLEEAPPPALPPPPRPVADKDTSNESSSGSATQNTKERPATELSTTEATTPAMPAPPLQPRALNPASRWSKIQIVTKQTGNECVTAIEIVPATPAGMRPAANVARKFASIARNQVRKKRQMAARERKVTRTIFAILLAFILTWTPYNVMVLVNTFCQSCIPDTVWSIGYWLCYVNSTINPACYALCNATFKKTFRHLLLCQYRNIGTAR
The experiment can be described thus: mAChR M4 cell-based functional assay (calcium flux, potentiation of EC20 acetylcholine response), hM4-Gqi5 CHO-K1 cells. The conditions noted are these: for Emax at 30 µM: CHO-K1, % ACh maximum at 30 μM; for EC50: calcium flux, read-out: Human M4 EC50. The gist of the method:
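Positive allosteric modulation was scored as a concentration-dependent rise in the response to an EC20 dose of acetylcholine, added 144 s after the compound. Human M4-Gqi5 CHO-K1 cells carried Fluo-4 dye, and compounds ran as 11-point, 3-fold dilution series. EC50 and Emax came from four-parameter logistic fits of the FDSS fluorescence-ratio traces.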
For orientation: Calcium flux is commonly read through the fluorescence of an indicator in the cells.

Setting [1] is: Table 3, Human M4, read-out: Emax (% ACh maximum at 30 μM).
The mark [2] stands for this setting: Table 3, potentiation of EC20 acetylcholine response, CHO-K1 cells.
Setting [3] is: hM4-Gqi5 CHO-K1 cells, PAM of EC20 acetylcholine.

Structures are written as SMILES. Read-outs that look alike come from different tables or passages of the source.

As usually defined, the Emax is the greatest response seen or fitted, relative to the assay's reference. Usually EC50 stands for the concentration needed to bring the measured effect to its halfway point. Take `Cc1c(N2CCc3ncc(-c4cccnc4OC(C)C)cc3C2)nn2cnnc2c1C` [Compound 182, 6-(7,8-dimethyl-[1,2,4]triazolo[4,3-b]pyridazin-6-yl)-3-(2-isopropoxypyridin-3-yl)-5,6,7,8-tetrahydro-1,6-naphthyridine]: under setting [1], the Emax at 30 µM came out at 42%. Besides, the EC50 under setting [2] was 1100 nM.
Take `Cc1c(N2CCc3ncc(N4CCO[C@H](C)C4)cc3C2)nn2c(C(F)(F)F)nnc2c1C` [Compound 313, (R)-4-(6-(7,8-dimethyl-3-(trifluoromethyl)-[1,2,4]triazolo[4,3-b]pyridazin-6-yl)-5,6,7,8-tetrahydro-1,6-naphthyridin-3-yl)-2-methylmorpholine]: for the setting “Table 4, Human M4, read-out: Emax (% ACh maximum at 30 μM)”, the Emax at 30 µM stood at 82%. Moreover, the EC50 (Table 4, potentiation of EC20 acetylcholine response, CHO-K1 cells) was 296 nM.
Regarding `COC1CCN(c2cnc3c(c2)CN(c2nn4c(C(F)(F)F)nnc4cc2C)CC3)C1` (stereo not shown) [Compound 287, 3-(3-methoxypyrrolidin-1-yl)-6-(7-methyl-3-(trifluoromethyl)-[1,2,4]triazolo[4,3-b]pyridazin-6-yl)-5,6,7,8-tetrahydro-1,6-naphthyridine], the Emax at 30 µM under setting [1] stood at 82%. Under setting [2], the EC50 worked out at 2360 nM.
For `Cc1cc2nncn2nc1N1CCc2ncc(-c3ccc(C(F)(F)F)nc3)cc2C1` [Compound 196, 6-(7-methyl-[1,2,4]triazolo[4,3-b]pyridazin-6-yl)-3-(6-(trifluoromethyl)pyridin-3-yl)-5,6,7,8-tetrahydro-1,6-naphthyridine], the Emax at 30 µM under setting [1] stood at 80%. Moreover, the EC50 under setting [2] came to 708 nM.
Regarding `Cc1cc2nncn2nc1N1CCc2ncc(Oc3ccc(F)cc3F)cc2C1` [Compound 293, 3-(2,4-difluorophenoxy)-6-(7-methyl-[1,2,4]triazolo[4,3-b]pyridazin-6-yl)-5,6,7,8-tetrahydro-1,6-naphthyridine], under setting [1], the Emax at 30 µM is 96%. The EC50 under setting [2] came out at 155 nM.
Turning to `Cc1c(N2CCc3ncc(N4CCCCC4)cc3C2)nn2c(C(F)(F)F)nnc2c1C` [Compound 281, 6-(7,8-dimethyl-3-(trifluoromethyl)-[1,2,4]triazolo[4,3-b]pyridazin-6-yl)-3-(piperidin-1-yl)-5,6,7,8-tetrahydro-1,6-naphthyridine], the Emax at 30 µM under setting [1] amounted to 76%. For the same molecule, under setting [2], the EC50 was 738 nM.
On to `Cc1c(N2CCc3ncc(Nc4ccnn4C)cc3C2)nn2cnnc2c1C` [Compound 164, 6-(7,8-dimethyl-[1,2,4]triazolo[4,3-b]pyridazin-6-yl)-N-(1-methyl-1H-pyrazol-5-yl)-5,6,7,8-tetrahydro-1,6-naphthyridin-3-amine], for which the Emax at 30 µM under setting [1] stood at 109%. For the same molecule, the EC50 under setting [2] was found to be 152 nM.
Consider `[2H]c1nnc2c(C)c(C)c(N3CCc4ncc(-c5c(C)nn(C)c5C)cc4C3)nn12` [Compound 75, 6-(3-deuterio-7,8-dimethyl-[1,2,4]triazolo[4,3-b]pyridazin-6-yl)-3-(1,3,5-trimethylpyrazol-4-yl)-7,8-dihydro-5H-1,6-naphthyridine], for which the Emax at 30 µM (human M4, read-out: Emax) came to 99%. The EC50 under setting [3] stood at 164 nM.
Regarding `Cc1c(N2CCc3ncc(Nc4ccnn4C)cc3C2)nn2c(C(F)(F)F)nnc2c1C` [Compound 201, 6-(7,8-dimethyl-3-(trifluoromethyl)-[1,2,4]triazolo[4,3-b]pyridazin-6-yl)-N-(1-methyl-1H-pyrazol-5-yl)-5,6,7,8-tetrahydro-1,6-naphthyridin-3-amine], under setting [1], the maximum response (Emax) at 30 µM was 94%. Further, the EC50 under setting [2] stood at 63 nM.
Regarding `Cc1cc2nncn2nc1N1CCc2ncc(Nc3csc4ncccc34)cc2C1` [Compound 205, N-(6-(7-methyl-[1,2,4]triazolo[4,3-b]pyridazin-6-yl)-5,6,7,8-tetrahydro-1,6-naphthyridin-3-yl)thieno[2,3-b]pyridin-3-amine], under setting [1], the maximal effect (Emax) at 30 µM came out at 65%. The EC50 under setting [2] worked out at 477 nM.
Turning to `Cc1c(N2CCc3ncc(Nc4cc(F)ccc4F)cc3C2)nn2cnnc2c1C` [Compound 32, N-(2,5-difluorophenyl)-6-(7,8-dimethyl-[1,2,4]triazolo[4,3-b]pyridazin-6-yl)-7,8-dihydro-5H-1,6-naphthyridin-3-amine], the Emax at 30 µM (human M4, read-out: Emax) stood at 102%. For the same molecule, the EC50 under setting [3] came out at 84.8 nM.
